Consider eight compounds from patent publication EP2608671B1, “COMPOUNDS FOR TREATMENT OF CANCER” (Gtx, Inc., priority 2010, dated 2012).

In brackets after ≈: the same amount, converted by molar mass. Where two headings read alike, the source gives them in different places.

The subject of one series is NCI/ADR-RES. The series is described as follows: SRB growth inhibition, P-gp over-expressing MDR line. It is filed as cell-based, human. Particulars: for Resistance factor: 5760 min.
Series [1] deals with melanoma cell lines (A375, WM-164, B16-F1) and prostate cancer cell lines (LNCaP, DU 145, PC-3, PPC-1). The series is described as follows: SRB cytotoxicity, melanoma and prostate cell panel (averages). It is filed as cell-based. From the text: (§1) The only compounds which belong to the invention are the ones falling under the scope of formula (XI).
For series [2] the following is noted: 90 min.
The conditions of series [3]: rat, IV; […] (1h, 2r), 5 mg/kg (5Ha, 5Hc).
Series [4] can be described thus: in vivo. The conditions noted are these: rat, plasma, po, 10 mg/kg.
A further series concerns MDA-MB-435. Put plainly: SRB growth inhibition, sensitive parent melanoma line. It is filed as cell-based. The conditions noted are these: Homo sapiens, MDA-MB-435, read-out: IC50 ± SEM (nM) (n=3), MDA-MB-435; sensitive parent melanoma cell line.
The test system of a further series is B16-F1. Put plainly: SRB cell growth inhibition (cytotoxicity) assay. It counts as cell-based, mouse.
Excerpt: as §1

Series [5] deals with PPC-1. Put plainly: cells. Particulars: Homo sapiens, PPC-1, 96 h, read-out: IC50 ± SEM (nM), PPC-1.
A further series relates to PC-3. Put plainly: cells.
Excerpt: as §1
Cells were stained with SRB solution.
Cells. […] Cells between the third and fifth passages were used for experiments.
Cell growth inhibition studies. […] Cells were stained with sulphorhodamine B (SRB) solution.

For another series, the system named is A375. The series is described as follows: SRB cell growth inhibition (cytotoxicity) assay. It is filed as cell-based, human.
For the next series, the system named is MDA-MB-435/LCC6MDR1. Put plainly: SRB growth inhibition, multidrug-resistant melanoma line. Particulars: MDA-MB-435/LCC6 MDR1, read-out: IC50 ± SEM (nM) (n=3), MDA-MB-435/LCC6MDR1; multidrug-resistant melanoma cell line. It is filed as cell-based.
Series [6] has as its system DU 145. Put plainly: cells. Particulars: Homo sapiens, DU-145, 96 h, read-out: IC50 ± SEM (nM) Du 145.
Series [7] deals with LNCaP. Put plainly: cells. The conditions noted are these: Homo sapiens, 96 h, read-out: IC50 ± SEM (nM), LNCaP.
The next series deals with WM-164. Put plainly: SRB cell growth inhibition (cytotoxicity) assay. It counts as cell-based, human.
Another series concerns OVCAR-8. Put plainly: SRB growth inhibition, MDR model parent line. It counts as cell-based, human. Particulars: read-out: IC50 ± SEM (nM) OVCAR-8.
Series [8] in a line: in vivo. The conditions noted are these: mouse, po, 20 mg/kg.
The subject of series [9] is DU 145.
Series [10] concerns PPC-1. Particulars: read-out: IC50 ± SEM (nM) PPC-1.
Series [11] deals with LNCaP. Particulars: read-out: IC50 ± SEM (nM) LNCaP.
In the next series the test system is PC-3/TxR tumors. The conditions noted are these: PC-3/TxR xenograft, IV 20mpk, day 1 and 9.
Series [12] concerns PC-3 prostate tumor xenograft. Put plainly: In vivo antitumor efficacy, PC-3 xenograft. Further details: species or system mouse. Particulars: Prostate (PC-3) xenograft, 21 days. An excerpt:
(§2) PC-3 and A375 tumor xenograft studies.
(§3) In vivo antitumor activity [tumor growth inhibition (% T/C), tumor growth delay (T-C value), and tumor cell kill (total log cell kill)].

Series [13] relates to A375 human melanoma xenograft. The series is described as follows: In vivo antitumor efficacy, A375 melanoma xenograft. Further details: species or system mouse. Particulars: Melanoma (A375) xenograft, 20 mg/kg i.p. The procedure: DTIC at 60 mg/kg was used as a positive control again.
as §2, §3

Setting [14] is: Mus musculus, B16-F1, read-out: IC50 ± SEM (nM) (n=3), B16-F1, Table 14A.
Where [15] appears, read: Mus musculus, B16-F1 melanoma cells, 48 h, SRB, read-out: IC50 ± SEM (nM) B16-F1.
[16] abbreviates: Homo sapiens, PC-3, 96 h, read-out: IC50 ± SEM (nM), PC-3.
The mark [17] stands for this setting: Homo sapiens, A-375, read-out: IC50 ± SEM (nM) (n=3), A375, Table 14A.
Where [18] appears, read: Homo sapiens, A-375, A375 melanoma cells, 48 h, SRB, read-out: IC50 ± SEM (nM) A375.
Setting [19] is: Table 21, Melanoma, n = 3, read-out: IC50 ± SEM (nM) B16-F1.
Where [20] appears, read: read-out: IC50 ± SEM (nM) Dn-145, Table 21, Prostate, n = 3.
Where [21] appears, read: read-out: IC50 ± SEM (nM) PC-3, Table 21, Prostate, n = 3.
The mark [22] stands for this setting: Table 21, Melanoma, n = 3, read-out: IC50 ± SEM (nM) A375.

The compound `COc1cc(C(=O)c2csc(-c3ccc(CN)cc3)n2)cc(OC)c1OC.Cl` [2r, (2-(4-(Aminomethyl)phenyl)thiazol-4-yl)(3,4,5-trimethoxyphenyl)methanone hydrochloride] showed a Resistance factor in the series on NCI/ADR-RES (NCI/ADR-RES vs OVCAR-8) of 0.4. The IC50 in series [1] (Prostate cell, read-out: IC50 range over tested melanoma and prostate cell lines) was 13 to 80 nM. Also, in series [2] (PBS pH 7.4, Figure 18), the “solubility in PBS” value was “over 35 µg/mL”. In addition, in series [3], the “CL (mL/min/kg), systemic clearance” value was 22 ± 13 mL/min/kg and the “Vss (L/kg), volume of distribution” value came to 0.33 ± 025 L/kg. The compound further had a bioavailability in “in vivo [4]” of 0.2%.
As for `COc1ccc(-c2nc(C(=O)c3ccc(F)cc3)cn2S(=O)(=O)c2ccccc2)cc1` [11cb, (4-fluorophenyl)(2-(4-methoxyphenyl)-1-(phenylsulfonyl)-1H-imidazol-4-yl)methanone], the IC50 stood at 38 nM in the series on MDA-MB-435; 71 ± 8 nM in the series on B16-F1 (setting [14]); 71 ± 8 nM with B16-F1 (setting [15]); 32 ± 0.7 nM in the series on PPC-1 [5]; 33 ± 2 nM in the series on PC-3 (setting [16]); 43 nM in series [1] (Prostate cell, read-out: IC50 (average over cell lines)). Also, the IC50 with A375 (setting [17]) was 36 ± 5 nM; in the series with A375 (setting [18]), 36 ± 5 nM; in the series with MDA-MB-435/LCC6MDR1, 30 nM; with DU 145 [6], 52 ± 3 nM; in the series with LNCaP [7], 31 ± 2 nM.
For the compound `O=C(c1ccc(F)cc1)c1cn(S(=O)(=O)c2ccccc2)c(-c2ccc(Cl)cc2)n1` [11fb, (2-(4-chlorophenyl)-1-(phenylsulfonyl)-1H-imidazol-4-yl)(4-fluorophenyl)methanone], the IC50 with MDA-MB-435 was 50 nM; in the series on B16-F1 (setting [14]), 107 ± 12 nM; in the series with B16-F1 (setting [15]) it was 107 ± 12 nM; in the series with PPC-1 [5], 54 ± 1 nM; in the series on WM-164 (Homo sapiens, WM164, read-out: IC50 ± SEM (nM) (n=3), WM-164, Table 14A), 74 ± 8 nM; with WM-164 (Homo sapiens, WM164 melanoma cells, 48 h, SRB, read-out: IC50 ± SEM (nM) WM164), 70 ± 6 nM. In addition, the IC50 in the series with PC-3 (setting [16]) was found to be 76 ± 2 nM; in the series on A375 (setting [17]) it was 88 ± 9 nM; in the series on A375 (setting [18]) it was 88 ± 9 nM; in the series with MDA-MB-435/LCC6MDR1, 35 nM; in the series on DU 145 [6], 64 ± 1 nM; with LNCaP [7], 48 ± 1 nM.
Take `COc1cc(C(=O)c2c[nH]c(-c3ccc(Cl)cc3)n2)cc(OC)c1OC` [12fa, (2-(4-Chlorophenyl)-1H-imidazol-4-yl)(3,4,5-trimethoxyphenyl)methanone]: the IC50 was determined as 47 nM in the series on OVCAR-8 (Homo sapiens, OVCAR-8 cells); 26 ± 0.2 nM in the series on PPC-1 [5]; 35 ± 1 nM in the series with PC-3 (setting [16]); 36 ± 0.4 nM in the series with DU 145 [6]; 24 ± 1 nM in the series on LNCaP [7]. Moreover, in series [2] (aqueous solubility), the Solubility stood at 12 µg/mL (≈ 32.2 µM). Moreover, the AUC in “in vivo [8]” is 3350 ng·h/mL; in “in vivo [4]” it was 3630 ng·h/mL. In addition, the maximum concentration (Cmax) was found to be 2590 ng/mL in “in vivo [8]” and 1110 ng/mL in “in vivo [4]”.
For the compound `O=C(c1ccc(F)cc1)c1c[nH]c(-c2ccc(O)cc2)n1` [12kb], the IC50 in the series with B16-F1 (B16-F1 melanoma cells, 48 h, SRB, read-out: IC50 ± SEM (nM) B16-F1) was > 10000 nM; in the series on DU 145 [9] (read-out: IC50 ± SEM (nM) Du 145, Du 145 prostate cancer cells, 96 h, SRB), > 10000 nM; with WM-164 (WM164 melanoma cells, 48 h, SRB, read-out: IC50 ± SEM (nM) WM164), > 10000 nM; in the series with PPC-1 [10] (PPC-1 prostate cancer cells, 96 h, SRB), > 10000 nM; with PC-3 (read-out: IC50 ± SEM (nM) PC-3, PC-3 prostate cancer cells, 96 h, SRB), > 10000 nM; in [1] (ABI compounds, Tables 11-13, read-out: IC50 (average over cell lines)), 33000 nM. Further, the IC50 with LNCaP [11] (LNCaP prostate cancer cells, 96 h, SRB) was found to be 10000 nM.
For `CC(=O)O[C@@]12CO[C@@H]1C[C@H](O)[C@@]1(C)C(=O)[C@H](O)C3=C(C)[C@@H](OC(=O)[C@H](O)[C@@H](NC(=O)OC(C)(C)C)c4ccccc4)C[C@@](O)([C@@H](OC(=O)c4ccccc4)[C@H]21)C3(C)C` [Dooetaxel], in the series on PC-3/TxR tumors (end point day 19), the “TGI (%)” value stood at 56% and the “Tumor size (mm^3) End” value worked out at 999 ± 905 mm^3. The “Tumor size (mm^3) Start” value with PC-3/TxR tumors (start) is recorded as 170 ± 86 mm^3.
With `COc1cc(C(=O)c2csc(-c3ccccc3)n2)cc(OC)c1OC` [SMART-H], the results for the “% T/C” value in series [12] (5 mg/kg i.p.), in [12] (15 mg/kg i.p.) and in [13] (34 days) were 29%, 4% and 30%, respectively. In addition, the IC50 in the series with OVCAR-8 (Table 21, Ovarian, n = 3) is 35 ± 2 nM; in the series with B16-F1 (setting [19]), 55 ± 5 nM; with DU 145 [9] (setting [20]) it was 71 ± 4 nM; with PPC-1 [10] (Table 21, Prostate, n = 3), 43 ± 5 nM; with PC-3 (setting [21]), 21 ± 1 nM; in the series with A375 (setting [22]) it was 28 ± 5 nM. Besides, in the series on LNCaP [11] (Table 21, Prostate, n = 3), the IC50 was 28 ± 4 nM. Also, the “Median time to reach 600 mm^3.” value in series [13] was determined as 28 days.
In the case of `COc1cc(C(=O)c2csc(-c3ccc(O)cc3)n2)cc(OC)c1OC` [SMART-OH], in series [12] (50 mg/kg i.p.), the “% T/C” value turned out to be 34%. In addition, the IC50 in the series on OVCAR-8 (Table 21, Ovarian, n = 3) was 110 ± 8 nM; in the series on B16-F1 (setting [19]), 113 ± 6 nM; with DU 145 [9] (setting [20]) it was 116 ± 14 nM; in the series on PPC-1 [10] (Table 21, Prostate, n = 3) it was 76 ± 2 nM; with NCI/ADR-RES (Table 21, Ovarian, n = 3, read-out: IC50 ± SEM (nM) NCI/ADR-RES), 45 ± 5 nM; in the series on PC-3 (setting [21]), 87 ± 5 nM. For the same compound, the IC50 in the series on A375 (setting [22]) was 93 ± 11 nM; in the series with LNCaP [11] (Table 21, Prostate, n = 3) it was 103 ± 9 nM. Further, the “Resistance factor” value with NCI/ADR-RES (NCI/ADR-RES relative to parent OVCAR-8) came to 0.4.
